“Also recorded” adds a separate entry of the source.
What was measured:
[1] = test system: MCF-7 human breast cancer cells; assay: Hypoxia-activated drug assay: live-dead staining (calcein-AM / propidium iodide) of micropatterned cells, normoxic or in hypoxia microdevice; type: cell-based; settings: 50 μM TPZ; for live-cell fraction (areal fraction of positive calcein staining), inside versus outside the 1.5 mm radius: N=3, one-way ANOVA; for cytotoxicity indicated by positive nuclear propidium iodide (PI) staining: 24 hours after 12 hours pre-conditioning
Experimental: To assess the response of cancer cells to drug treatment under a hypoxic gradient, as well as the feasibility of the microdevice for drug screening assays, cell viability assays with TPZ treatment in the microdevice were performed. […] Cells were pre-conditioned with hypoxia in the microdevice for 12 hours, which was considered sufficient to induce cellular adaptations to hypoxia^47, before being treated with TPZ for 24 hours. […] As dead cells can be washed off in the staining process, the areal fraction of living cells with positive calcein staining was chosen as the readout for TPZ cytotoxicity. The live-cell fractions in the micropatterns inside and outside the 1.5 mm radius were quantified, which corresponds to the pillar radius.
MCF-7 human breast cancer cells were purchased from ATCC and maintained in […] (DMEM; Thermo Fisher) supplemented with 10% fetal bovine serum (FBS; Omega Scientific), 100 U mL^−1 penicillin, and 100 μg mL^−1 streptomycin (Thermo Fisher), in a humidified incubator maintained at 37° C. and 5% CO2. Round glass coverslips (12 mm in diameter; Fisher Scientific) were immersed in hot commercial detergent, rinsed with deionized water, and dried with air. The coverslips were then treated with plasma (Harrick Plasma, Model PDC-001-HP) and silanized with 1% aminopropyltriathoxysilane (Fisher Scientific) for 15 minutes. Upon extensive rinsing, coverslips were dried with air and cured at 100° C. for 1 hour. Next, silanized coverslips were coated with 0.1 mg mL^−1 rat tail collagen type I (Corning) in 4° C. for 3 hours under shaking conditions. Micropattern designs were modeled in CorelDrawX7 (Corel Corporation) and fabricated into 250 μm thick PDMS stencils (Rogers Corporation) by a laser engraver (Epilog). Stencil design was a circular feature of 5 mm diameter cut into a 13 mm circle. Stencils were then thoroughly rinsed in 70% isopropanol and deionized water, air-dried, and aligned onto the collagen-coated coverslips. The whole substrate was blocked with 0.2% w/v pluronic F-127 (Sigma) diluted in 1×PBS, rinsed with PBS, then with DMEM. Next, 300,000 MCF-7 human breast cancer cells (ATCC) were seeded. After cells adhered, PDMS stencils were peeled off and the glass coverslips with micropatterned cancer cells were briefly rinsed^41.
Micropatterned cells were pre-conditioned in normoxic conditions (no microdevice) or hypoxic conditions (microdevice) for 12 hours. Next, media was replaced with 50 μM TPZ (Sigma Aldrich), a hypoxia-activated anticancer prodrug, for 24 hours. Cells were rinsed with fresh media and stained for calcein-AM (Sigma Aldrich) and propidium iodide (PI) (Thermo Fisher Scientific) for 30 minutes at room temperature. Cell survival was quantified by the fraction of cells expressing positive calcein signal.
For the drug assay, the fraction of calcein positive cells (live cells) within (corresponding to hypoxia-induced cells under the pillar) and outside (corresponding to near-normoxic cells outside the pillar) the 1.5 mm radius was quantified. The fraction of PI positive cells (dead cells) was also quantified. The respective fractions were plotted against micropattern radii, similarly to previous image analyses. All data are plotted using Prism (GraphPad Software, Inc.).

[2] = test system: hypoxic human cancer cells; settings: hypoxic vs normoxic human cancer cells; cited from earlier work

## Nc1n[n+]([O-])c2ccccc2[n+]1[O-] [TPZ, tirapazamine]
[1]; hypoxia microdevice, 24 hours
  live-cell fraction (areal fraction of positive calcein staining), inside versus outside the 1.5 mm radius: significant reduction
[1]; hypoxic samples (microdevice), MCF-7
  cytotoxicity indicated by positive nuclear propidium iodide (PI) staining: cytotoxicity caused by TPZ
[1]; microdevice, ≤0.03 mol/m^3 oxygen level by COMSOL simulation, 24 hours, MCF-7
  fate of cells under severe hypoxia near the pillar center (live-dead staining): eliminated; also recorded: death zone
[1]; normoxic condition (no microdevice), 24 hours
  live-cell fraction (areal fraction of positive calcein staining), inside versus outside the 1.5 mm radius: not statistically different
[1]; normoxic samples (no microdevice), MCF-7
  cytotoxicity indicated by positive nuclear propidium iodide (PI) staining: cytotoxicity caused by TPZ; also recorded: TPZ-induced cytotoxicity
[2]
  selectivity at targeting hypoxic human cancer cells versus their normoxic counterparts: 15- to 50 fold
